Measured values: ChEMBL document CHEMBL1201862, “PubChem BioAssay data set” (2004)
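Method: 48-hour compound exposure of cells in 96-well plates, five concentrations, linear interpolation of endpoints. At the GI50, growth is halved.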 Calls of active or inactive are those of the source. Cut-off read from the data, not from the text of the source: active = GI50 up to about 1.1 µM and inactive = higher.

What was measured:
Assay in all cases: NCI-60 cell line screen, 48 h
RXF 393 = test system: RXF 393
NCI/ADR-RES = test system: NCI/ADR-RES
BT-549 = test system: BT-549
DU-145 = test system: DU-145
NCI-H23 = test system: NCI-H23
MCF7 = test system: MCF7
Hs-578T = test system: Hs-578T
NCI-H226 = test system: NCI-H226
HCT-116 = test system: HCT-116
UACC-62 = test system: UACC-62
SF-295 = test system: SF-295
UACC-257 = test system: UACC-257
OVCAR-5 = test system: OVCAR-5
786-0 = test system: 786-0
A549 = test system: A549
SNB-75 = test system: SNB-75
SNB-19 = test system: SNB-19
SF-268 = test system: SF-268
IGROV-1 = test system: IGROV-1
SR = test system: SR

Measured: GI50

Cc1cn(C2OC(CO)C(O)C2F)c(=O)[nH]c1=O (centres undefined)
inactive: RXF 393 43 µM | NCI/ADR-RES 64 µM | BT-549 87.1 µM | DU-145 70.1 µM | NCI-H23 > 100 µM | MCF7 > 100 µM | Hs-578T > 100 µM | NCI-H226 > 100 µM | HCT-116 73.3 µM | UACC-62 64.3 µM | SF-295 > 100 µM | UACC-257 > 100 µM | OVCAR-5 > 100 µM | 786-0 87.5 µM | A549 61.5 µM | SNB-75 > 100 µM | SNB-19 > 100 µM | SF-268 > 100 µM | IGROV-1 > 100 µM

Cc1cc(N)c2cc(NC(=O)Nc3ccc4nc(C)cc(N)c4c3)ccc2n1
inactive: NCI/ADR-RES > 100 µM | BT-549 > 100 µM | DU-145 > 100 µM | NCI-H23 > 100 µM | MCF7 > 100 µM | Hs-578T > 100 µM | NCI-H226 > 100 µM | HCT-116 > 100 µM | UACC-62 > 100 µM | SF-295 89.5 µM | UACC-257 > 100 µM | OVCAR-5 > 100 µM | 786-0 > 100 µM | A549 > 100 µM | SNB-19 > 100 µM | SF-268 > 100 µM | IGROV-1 > 100 µM

C[C@]12CC(c3ccccc3O1)C(C(=O)NC13CC4CC(CC(C4)C1)C3)C(=O)N2 (some centres undefined)
inactive: RXF 393 25.6 µM | NCI/ADR-RES 20.3 µM | BT-549 28.1 µM | DU-145 38.4 µM | NCI-H23 23.7 µM | MCF7 39.5 µM | Hs-578T 55.7 µM | NCI-H226 23.6 µM | HCT-116 18.4 µM | UACC-62 46.8 µM | SF-295 44.8 µM | UACC-257 35.7 µM | OVCAR-5 19.5 µM | 786-0 18.3 µM | A549 21.1 µM | SNB-75 27.5 µM | SNB-19 23.4 µM | SF-268 32.1 µM | IGROV-1 31.4 µM

COC(=O)C(=O)C(C(=O)C(=O)Nc1ccc(Cl)c(Cl)c1)c1nc2ccc(C(=O)c3ccccc3)cc2nc1O (centres undefined)
inactive: RXF 393 38.4 µM | NCI/ADR-RES 33.6 µM | BT-549 > 100 µM | NCI-H23 47.6 µM | MCF7 35.2 µM | Hs-578T 22.1 µM | NCI-H226 56.4 µM | HCT-116 61.4 µM | UACC-62 > 100 µM | SF-295 49.4 µM | UACC-257 > 100 µM | OVCAR-5 > 100 µM | 786-0 > 100 µM | A549 > 100 µM | SNB-75 28.3 µM | SNB-19 45.6 µM | SF-268 51.4 µM | IGROV-1 33.5 µM

CN1c2ccccc2C2=C(c3ccccc3)CC[C@@H](C(=O)N3C4CC5CC[C@@]4(CS3(=O)=O)C5(C)C)[C@@H]21 (some centres undefined)
inactive: NCI/ADR-RES > 100 µM | BT-549 > 100 µM | DU-145 > 100 µM | NCI-H23 > 100 µM | MCF7 > 100 µM | Hs-578T > 100 µM | NCI-H226 > 100 µM | HCT-116 34.2 µM | UACC-62 > 100 µM | SF-295 > 100 µM | UACC-257 > 100 µM | OVCAR-5 > 100 µM | 786-0 > 100 µM | A549 > 100 µM | SNB-75 > 100 µM | SR > 100 µM | SNB-19 > 100 µM | SF-268 > 100 µM | IGROV-1 > 100 µM

O=[N+]([O-])C(=C(N1CCOCC1)N1CCOCC1)/C(Cl)=C(\Cl)Br
inactive: NCI/ADR-RES 22.2 µM | BT-549 13.3 µM | DU-145 46.6 µM | NCI-H23 17.3 µM | MCF7 > 10 µM | Hs-578T > 100 µM | NCI-H226 27.6 µM | HCT-116 17.1 µM | SF-295 > 100 µM | UACC-257 17.3 µM | OVCAR-5 17.1 µM | 786-0 25.4 µM | A549 > 100 µM | SNB-75 17.5 µM | SR 17.2 µM | SNB-19 > 100 µM | SF-268 23.6 µM

Cc1nn(C(=O)Cc2ccccc2)c2c1C(c1ccc([N+](=O)[O-])cc1)SC(=N)N2 (centres undefined)
inactive: BT-549 > 100 µM | DU-145 > 100 µM | NCI-H23 > 100 µM | MCF7 > 100 µM | Hs-578T > 100 µM | HCT-116 > 100 µM | UACC-62 > 100 µM | SF-295 > 100 µM | UACC-257 > 100 µM | 786-0 > 100 µM | A549 > 100 µM | SR > 100 µM | SF-268 > 100 µM | IGROV-1 > 100 µM

c1ccc(CN2CCC3(CC2)SSC2(CCN(Cc4ccccc4)CC2)S3)cc1
inactive: NCI/ADR-RES > 100 µM | BT-549 > 100 µM | DU-145 > 100 µM | NCI-H23 30.1 µM | Hs-578T 17.7 µM | HCT-116 50.8 µM | UACC-62 82.8 µM | SF-295 26.5 µM | UACC-257 26.7 µM | OVCAR-5 85.3 µM | 786-0 > 100 µM | A549 27.7 µM | SNB-75 > 100 µM | SR 28.8 µM | IGROV-1 > 100 µM

COP(=O)(OC)C12CCOCCN1c1ccccc1C2=O (centres undefined)
inactive: NCI/ADR-RES > 100 µM | BT-549 > 100 µM | DU-145 > 100 µM | NCI-H23 > 100 µM | MCF7 > 100 µM | Hs-578T > 100 µM | NCI-H226 > 100 µM | HCT-116 > 100 µM | UACC-62 > 100 µM | SF-295 > 100 µM | UACC-257 > 100 µM | OVCAR-5 > 100 µM | 786-0 > 100 µM | A549 > 100 µM | SNB-75 > 100 µM | SNB-19 > 100 µM | SF-268 > 100 µM | IGROV-1 > 100 µM

CCOC(=O)Nn1cnnc1C
inactive: RXF 393 > 100 µM | NCI/ADR-RES > 100 µM | BT-549 > 100 µM | NCI-H23 > 100 µM | MCF7 > 100 µM | NCI-H226 > 100 µM | HCT-116 > 100 µM | UACC-62 > 100 µM | SF-295 > 100 µM | UACC-257 > 100 µM | OVCAR-5 > 100 µM | 786-0 > 100 µM | A549 > 100 µM | SR > 100 µM | SNB-19 > 100 µM | IGROV-1 > 100 µM

COc1ccc2c(c1)C(=O)OCCC2
inactive: RXF 393 > 100 µM | NCI/ADR-RES > 100 µM | BT-549 > 100 µM | DU-145 > 100 µM | NCI-H23 > 100 µM | MCF7 > 100 µM | Hs-578T > 100 µM | NCI-H226 > 100 µM | HCT-116 > 100 µM | UACC-62 > 100 µM | SF-295 > 100 µM | UACC-257 > 100 µM | OVCAR-5 > 100 µM | 786-0 > 100 µM | A549 > 100 µM | SNB-75 54 µM | SNB-19 > 100 µM | SF-268 > 100 µM | IGROV-1 > 100 µM

OC(c1ccc(F)cc1)C(F)(F)c1nc2ccccc2o1 (centres undefined)
inactive: RXF 393 39.4 µM | NCI/ADR-RES 51.4 µM | BT-549 > 100 µM | DU-145 47 µM | NCI-H23 > 100 µM | MCF7 > 100 µM | NCI-H226 > 100 µM | HCT-116 > 100 µM | UACC-62 > 100 µM | SF-295 > 100 µM | UACC-257 57.4 µM | 786-0 > 100 µM | SNB-75 21.6 µM | SR > 100 µM | SNB-19 > 100 µM | SF-268 38.9 µM | IGROV-1 > 100 µM

O=C(/C=C/c1ccc(C(F)(F)F)cc1)c1c([O-])on[n+]1-c1ccccc1
inactive: RXF 393 1.27 µM | NCI/ADR-RES 1.78 µM | BT-549 1.59 µM | DU-145 2.21 µM | NCI-H23 3.13 µM | MCF7 1.15 µM | NCI-H226 6 µM | HCT-116 1.75 µM | UACC-62 1.47 µM | SF-295 3.6 µM | UACC-257 2.12 µM | OVCAR-5 3.12 µM | A549 4.03 µM | SNB-75 2.07 µM | SNB-19 3.12 µM | IGROV-1 1.86 µM
active: 786-0 0.531 µM | SR 0.196 µM

CCOC(=O)c1c(SC)nc(-c2ccc(Cl)cc2)sc1=N.[O-][Cl+3]([O-])([O-])O
inactive: RXF 393 33.9 µM | NCI/ADR-RES 23.7 µM | BT-549 30 µM | DU-145 40.9 µM | NCI-H23 22.6 µM | MCF7 29 µM | Hs-578T 27.9 µM | NCI-H226 25.9 µM | HCT-116 23.1 µM | UACC-62 30.8 µM | SF-295 28.2 µM | UACC-257 34.6 µM | OVCAR-5 59.2 µM | 786-0 27.3 µM | A549 37.7 µM | SNB-75 25.1 µM | SNB-19 94.4 µM | SF-268 29.4 µM | IGROV-1 20.8 µM

c1ccc(/N=C2/SC(c3ccccc3)(c3ccccc3)c3ccccc32)cc1
inactive: RXF 393 > 100 µM | NCI/ADR-RES > 100 µM | BT-549 > 100 µM | DU-145 > 100 µM | NCI-H23 > 100 µM | MCF7 87.7 µM | Hs-578T > 100 µM | NCI-H226 > 100 µM | HCT-116 64.3 µM | UACC-62 > 100 µM | SF-295 > 100 µM | UACC-257 > 100 µM | OVCAR-5 > 100 µM | 786-0 > 100 µM | A549 > 100 µM | SNB-75 > 100 µM | SNB-19 > 100 µM | SF-268 > 100 µM | IGROV-1 > 100 µM
